ChEMBL document CHEMBL5046282, “Discovery of Brain-Penetrant Glucosylceramide Synthase Inhibitors with a Novel Pharmacophore” (J Med Chem, 2022)
Values after ≈ are worked out from the molar mass of the structure shown.

Tests used:
[1] = Toxicity in C57BL/6J mouse assessed as change in body weight at 30 to 100 mg/kg, po; type: organism-based; conditions: in vivo, dose 30-100 mg/kg
[2] = Cardiotoxicity in human iPSC-derived cardiomyocytes assessed as induction of proarrhythmic activity at 30 uM by Fluo-4 dye based fluorescence analysis; type: toxicity; conditions: cardiac muscle cell
[3] = Cmax in non-fasted ICR mouse at 5 mg/kg, po by LC-MS/MS analysis; type: ADME, organism-based; design: route oral, dose 5 mg/kg; conditions: in vivo
hERG [4] = target: T1, hERG (Homo sapiens, UniProt Q12809); assay: Inhibition of hERG expressed in CHO-K1 cells at 10 uM incubated for 5 mins by whole cell-automated voltage clamp analysis; type: toxicity, cell-based; conditions: CHO-K1 cells expressing hERG
T1 sequence (Q12809 whole entry): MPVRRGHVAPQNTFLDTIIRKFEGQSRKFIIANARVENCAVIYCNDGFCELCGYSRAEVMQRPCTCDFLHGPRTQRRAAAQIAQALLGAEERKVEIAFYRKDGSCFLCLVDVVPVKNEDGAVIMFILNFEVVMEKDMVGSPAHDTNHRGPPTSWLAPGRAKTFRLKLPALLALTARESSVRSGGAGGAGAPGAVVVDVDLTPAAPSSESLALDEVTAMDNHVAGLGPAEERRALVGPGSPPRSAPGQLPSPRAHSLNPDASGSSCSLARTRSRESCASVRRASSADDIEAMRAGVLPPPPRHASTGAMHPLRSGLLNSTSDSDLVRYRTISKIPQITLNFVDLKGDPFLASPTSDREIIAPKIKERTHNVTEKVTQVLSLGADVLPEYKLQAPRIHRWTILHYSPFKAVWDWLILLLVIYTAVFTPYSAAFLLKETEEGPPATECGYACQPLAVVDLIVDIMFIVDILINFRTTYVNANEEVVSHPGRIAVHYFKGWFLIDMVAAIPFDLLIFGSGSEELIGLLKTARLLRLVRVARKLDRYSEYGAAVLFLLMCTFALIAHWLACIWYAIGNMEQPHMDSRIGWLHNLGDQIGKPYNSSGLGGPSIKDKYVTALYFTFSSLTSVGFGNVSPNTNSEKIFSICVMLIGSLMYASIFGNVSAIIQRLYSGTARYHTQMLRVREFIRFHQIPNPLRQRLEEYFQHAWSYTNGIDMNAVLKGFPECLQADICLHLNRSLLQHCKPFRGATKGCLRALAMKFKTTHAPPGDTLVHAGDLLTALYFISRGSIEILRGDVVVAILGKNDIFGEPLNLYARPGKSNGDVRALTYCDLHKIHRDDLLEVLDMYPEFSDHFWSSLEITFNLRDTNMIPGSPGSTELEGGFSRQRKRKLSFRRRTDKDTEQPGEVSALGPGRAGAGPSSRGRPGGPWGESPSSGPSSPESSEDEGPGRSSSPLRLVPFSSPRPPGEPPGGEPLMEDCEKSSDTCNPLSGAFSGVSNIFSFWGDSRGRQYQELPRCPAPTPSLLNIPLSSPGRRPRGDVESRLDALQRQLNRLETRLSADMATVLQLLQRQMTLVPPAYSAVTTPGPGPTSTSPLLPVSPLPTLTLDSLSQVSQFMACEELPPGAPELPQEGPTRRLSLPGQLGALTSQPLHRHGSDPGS

[5] = Cardiotoxicity in human iPSC-derived cardiomyocytes assessed as minimum effective concentration required for intracellular calcium transients-mediated proarrhythmic activity by Fluo-4 dye based fluorescence analysis; type: toxicity; conditions: cardiac muscle cell
[6] = AUC in non-fasted ICR mouse at 5 mg/kg, po by LC-MS/MS analysis; type: ADME, organism-based; design: dose 5 mg/kg; conditions: in vivo
[7] = Unbound drug concentration in brain of non-fasted ICR mouse at 30 mg/kg, po measured after 1 hr by LC-MS/MS analysis; type: ADME, organism-based; conditions: in vivo
hERG [8] = target: T1, hERG; assay: Inhibition of hERG expressed in CHO-K1 cells at 30 uM by automated whole cell patch clamp assay; type: toxicity, cell-based; conditions: CHO-K1 cells expressing hERG
[9] = Efflux ratio of apparent permeability from basolateral to apical side over apical to basolateral side in dog MDCK-MDR1 cells at 1 uM measured after 1 hr by LC-MS/MS analysis; type: ADME, cell-based, Canis lupus familiaris
CYP1A2 = target: T2, CYP1A2 (Homo sapiens, UniProt P05177); assay: Inhibition of CYP1A2 in human liver microsomes using tacrine as substrate at 10 uM in presence of NADPH generating system incubated for 10 mins; type: ADME; conditions: probe tacrine
T2 sequence (P05177 whole entry): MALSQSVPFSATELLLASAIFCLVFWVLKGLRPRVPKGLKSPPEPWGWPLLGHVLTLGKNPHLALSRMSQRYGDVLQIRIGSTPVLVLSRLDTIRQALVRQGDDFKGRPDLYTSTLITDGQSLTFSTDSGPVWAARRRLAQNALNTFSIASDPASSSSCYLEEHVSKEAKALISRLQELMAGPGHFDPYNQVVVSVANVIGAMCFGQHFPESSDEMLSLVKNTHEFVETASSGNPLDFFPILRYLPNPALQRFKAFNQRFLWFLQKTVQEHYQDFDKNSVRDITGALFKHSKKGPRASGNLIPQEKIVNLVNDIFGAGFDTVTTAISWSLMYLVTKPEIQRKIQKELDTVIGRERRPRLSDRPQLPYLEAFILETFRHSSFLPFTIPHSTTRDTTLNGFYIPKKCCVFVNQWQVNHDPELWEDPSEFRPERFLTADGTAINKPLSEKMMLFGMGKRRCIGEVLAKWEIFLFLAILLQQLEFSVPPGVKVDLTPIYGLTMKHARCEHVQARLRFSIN

CYP2D6 = CYP2D6 (Homo sapiens, UniProt P10635); assay: Inhibition of CYP2D6 in human liver microsomes using dextromethorphan as substrate at 10 uM in presence of NADPH generating system incubated for 10 mins; type: ADME; conditions: probe dextromethorphan
[10] = Plasma clearance in non-fasted ICR mouse at 0.5 mg/kg, iv by LC-MS/MS analysis; type: ADME, organism-based
[11] = MRT in non-fasted ICR mouse at 5 mg/kg, po by LC-MS/MS analysis; type: ADME, organism-based; conditions: in vivo
[12] = target: Ceramide glucosyltransferase (Homo sapiens, UniProt Q16739); assay: Inhibition of GCS in GBA mutant human fibroblasts assessed as reduction in glucosylceramide level incubated for 4 days by RapdiFire-MS/MS analysis; type: cell-based; conditions: fibroblast
Sequence of Ceramide glucosyltransferase (Homo sapiens, UniProt Q16739) (Q16739 whole entry, looked up, change not shown): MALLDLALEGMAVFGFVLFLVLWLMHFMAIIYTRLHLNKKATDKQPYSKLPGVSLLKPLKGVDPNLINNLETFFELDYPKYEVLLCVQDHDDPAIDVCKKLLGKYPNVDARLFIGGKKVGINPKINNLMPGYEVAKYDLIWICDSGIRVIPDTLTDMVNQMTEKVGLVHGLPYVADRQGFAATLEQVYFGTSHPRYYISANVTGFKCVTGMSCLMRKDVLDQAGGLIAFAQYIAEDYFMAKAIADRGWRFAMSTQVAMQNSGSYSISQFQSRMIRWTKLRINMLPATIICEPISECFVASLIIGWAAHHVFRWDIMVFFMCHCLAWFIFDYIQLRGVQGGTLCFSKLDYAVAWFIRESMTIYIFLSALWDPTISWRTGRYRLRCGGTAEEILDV

[13] = Toxicity in Sprague-Dawley rat assessed as reduction in body weight at 30 to 100 mg/kg, po administered once daily for 3 days; type: organism-based; conditions: in vivo, 72 h, dose 30-100 mg/kg, time 3 day
[14] = Ratio of unbound drug concentration in brain to plasma of non-fasted ICR mouse at 30 mg/kg, po measured after 1 hr by LC-MS/MS analysis; type: ADME, organism-based; conditions: read-out: K(p,uu,brain)
[15] = Intrinsic clearance in mouse liver microsomes at 1 uM in presence of NADPH generating system assessed per mg protein by LC-MS/MS analysis; type: ADME, Microsome; conditions: read-out: CLH
[16] = 1-Octanol/aqueous buffer partition coefficient, logD of the compound at pH 7.4 by chromatographic method; type: physicochemical
[17] = target: T3, Ceramide glucosyltransferase (Mus musculus, UniProt O88693); assay: Inhibition of mouse GCS using C8-ceramide and UDP-glucose as substrate incubated for 1 hr by RapidFire mass spectrometry
T3 sequence (O88693 whole entry): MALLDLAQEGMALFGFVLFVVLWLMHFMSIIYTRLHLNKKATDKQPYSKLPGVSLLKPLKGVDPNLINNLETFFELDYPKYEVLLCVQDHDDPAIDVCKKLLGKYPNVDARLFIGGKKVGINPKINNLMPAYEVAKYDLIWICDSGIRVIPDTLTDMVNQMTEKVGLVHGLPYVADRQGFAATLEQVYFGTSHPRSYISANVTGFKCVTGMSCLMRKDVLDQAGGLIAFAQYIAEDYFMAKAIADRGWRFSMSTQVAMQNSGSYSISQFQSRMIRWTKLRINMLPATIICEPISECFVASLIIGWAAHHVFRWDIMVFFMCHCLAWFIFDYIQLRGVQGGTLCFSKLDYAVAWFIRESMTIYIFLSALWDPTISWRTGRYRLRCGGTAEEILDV

Cav1.2 = Cav1.2 (Homo sapiens, UniProt Q13936); assay: Inhibition of human Cav1.2 expressed in HEK293 cells at 30 uM by automated electrophysiology QPatch HT assay; type: toxicity, cell-based; conditions: HEK293 cells expressing Cav1.2
[18] = Kinetic solubility of the compound in JP2 fluid at pH 6.8 by precipitation method; type: physicochemical; conditions: read-out: Kinetic_solubility
Nav1.5 = Nav1.5 (Homo sapiens, UniProt Q14524); assay: Inhibition of human Nav1.5 at 30 uM by automated whole cell patch clamp assay; type: toxicity
Sequence of Nav1.5 (Q14524 whole entry): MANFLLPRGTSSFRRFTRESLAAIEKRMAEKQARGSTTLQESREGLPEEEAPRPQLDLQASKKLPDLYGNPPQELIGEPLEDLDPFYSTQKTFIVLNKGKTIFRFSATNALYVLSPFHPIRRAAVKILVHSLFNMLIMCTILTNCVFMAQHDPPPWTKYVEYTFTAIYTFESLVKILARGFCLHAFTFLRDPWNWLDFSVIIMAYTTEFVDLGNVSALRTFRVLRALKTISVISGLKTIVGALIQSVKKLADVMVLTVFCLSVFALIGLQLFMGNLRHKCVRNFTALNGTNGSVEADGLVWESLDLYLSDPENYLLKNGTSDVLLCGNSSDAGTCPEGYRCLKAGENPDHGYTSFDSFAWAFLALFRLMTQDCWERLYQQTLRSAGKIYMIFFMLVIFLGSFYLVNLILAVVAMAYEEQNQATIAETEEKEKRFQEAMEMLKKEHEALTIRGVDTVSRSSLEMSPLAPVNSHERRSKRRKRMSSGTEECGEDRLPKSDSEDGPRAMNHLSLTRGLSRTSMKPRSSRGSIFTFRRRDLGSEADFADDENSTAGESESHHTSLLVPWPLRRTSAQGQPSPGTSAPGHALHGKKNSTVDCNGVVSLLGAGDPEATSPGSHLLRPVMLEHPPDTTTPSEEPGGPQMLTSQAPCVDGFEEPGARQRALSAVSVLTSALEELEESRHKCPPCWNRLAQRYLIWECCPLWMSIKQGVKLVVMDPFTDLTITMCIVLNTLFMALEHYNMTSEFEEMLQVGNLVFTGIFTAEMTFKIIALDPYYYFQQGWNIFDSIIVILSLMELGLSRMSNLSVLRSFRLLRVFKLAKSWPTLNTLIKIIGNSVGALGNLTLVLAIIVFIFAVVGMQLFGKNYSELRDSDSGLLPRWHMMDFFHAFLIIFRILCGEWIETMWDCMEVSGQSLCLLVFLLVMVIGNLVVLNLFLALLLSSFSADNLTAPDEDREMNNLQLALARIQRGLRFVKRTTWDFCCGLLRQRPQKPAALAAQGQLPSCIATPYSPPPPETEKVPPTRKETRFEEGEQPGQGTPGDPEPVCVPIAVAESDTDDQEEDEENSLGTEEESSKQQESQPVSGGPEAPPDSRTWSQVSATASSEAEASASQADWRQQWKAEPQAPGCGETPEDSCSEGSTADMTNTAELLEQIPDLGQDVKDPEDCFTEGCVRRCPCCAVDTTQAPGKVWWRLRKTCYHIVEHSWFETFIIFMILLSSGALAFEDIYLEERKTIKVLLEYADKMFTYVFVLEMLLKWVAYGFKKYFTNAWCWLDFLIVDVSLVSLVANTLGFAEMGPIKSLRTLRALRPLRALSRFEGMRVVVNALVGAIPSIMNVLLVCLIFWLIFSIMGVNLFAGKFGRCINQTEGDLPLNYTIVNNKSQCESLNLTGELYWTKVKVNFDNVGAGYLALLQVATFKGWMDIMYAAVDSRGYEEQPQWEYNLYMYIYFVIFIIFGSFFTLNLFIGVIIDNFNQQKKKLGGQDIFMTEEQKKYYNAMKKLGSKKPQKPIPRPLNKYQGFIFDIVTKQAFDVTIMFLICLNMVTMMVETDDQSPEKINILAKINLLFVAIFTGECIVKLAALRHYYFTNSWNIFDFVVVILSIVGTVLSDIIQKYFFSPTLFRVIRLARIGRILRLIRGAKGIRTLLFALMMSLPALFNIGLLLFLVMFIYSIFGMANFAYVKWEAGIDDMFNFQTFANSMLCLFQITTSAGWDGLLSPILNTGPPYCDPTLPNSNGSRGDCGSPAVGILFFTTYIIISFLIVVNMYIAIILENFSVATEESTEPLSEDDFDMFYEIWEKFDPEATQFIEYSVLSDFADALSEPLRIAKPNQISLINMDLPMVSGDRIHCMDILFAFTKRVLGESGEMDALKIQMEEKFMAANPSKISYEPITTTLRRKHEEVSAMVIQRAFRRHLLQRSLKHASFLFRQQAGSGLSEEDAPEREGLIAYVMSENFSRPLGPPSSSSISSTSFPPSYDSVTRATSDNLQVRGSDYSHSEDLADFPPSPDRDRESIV

[19] = target: Sodium-dependent serotonin transporter (Homo sapiens, UniProt P31645); assay: Inhibition of human SERT; type: toxicity
Sequence of Sodium-dependent serotonin transporter (P31645 whole entry): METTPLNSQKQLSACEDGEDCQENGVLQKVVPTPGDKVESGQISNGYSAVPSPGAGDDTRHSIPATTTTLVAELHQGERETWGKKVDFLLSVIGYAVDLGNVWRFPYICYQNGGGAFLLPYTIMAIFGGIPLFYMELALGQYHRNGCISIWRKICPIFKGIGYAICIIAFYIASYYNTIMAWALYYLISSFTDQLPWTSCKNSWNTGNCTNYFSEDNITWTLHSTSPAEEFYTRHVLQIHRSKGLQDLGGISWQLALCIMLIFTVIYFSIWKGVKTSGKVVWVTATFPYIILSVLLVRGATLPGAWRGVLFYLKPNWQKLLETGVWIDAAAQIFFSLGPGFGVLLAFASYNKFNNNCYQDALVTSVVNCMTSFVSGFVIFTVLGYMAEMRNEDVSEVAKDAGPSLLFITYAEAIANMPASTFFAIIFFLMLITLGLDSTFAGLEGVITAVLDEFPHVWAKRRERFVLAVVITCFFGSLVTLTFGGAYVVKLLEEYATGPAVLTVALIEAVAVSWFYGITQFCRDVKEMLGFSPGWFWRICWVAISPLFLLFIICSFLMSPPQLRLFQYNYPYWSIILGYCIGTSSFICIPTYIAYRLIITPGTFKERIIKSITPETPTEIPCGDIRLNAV

CYP2C9 = CYP2C9 (Homo sapiens, UniProt P11712); assay: Inhibition of CYP2C9 in human liver microsomes using tolbutamide as substrate at 10 uM in presence of NADPH generating system incubated for 10 mins; type: ADME; conditions: probe tolbutamide
CYP2C8 = target: T4, CYP2C8 (Homo sapiens, UniProt P10632); assay: Inhibition of CYP2C8 in human liver microsomes using paclitaxel as substrate at 10 uM in presence of NADPH generating system incubated for 10 mins; type: ADME; conditions: probe paclitaxel
T4 sequence (P10632 whole entry): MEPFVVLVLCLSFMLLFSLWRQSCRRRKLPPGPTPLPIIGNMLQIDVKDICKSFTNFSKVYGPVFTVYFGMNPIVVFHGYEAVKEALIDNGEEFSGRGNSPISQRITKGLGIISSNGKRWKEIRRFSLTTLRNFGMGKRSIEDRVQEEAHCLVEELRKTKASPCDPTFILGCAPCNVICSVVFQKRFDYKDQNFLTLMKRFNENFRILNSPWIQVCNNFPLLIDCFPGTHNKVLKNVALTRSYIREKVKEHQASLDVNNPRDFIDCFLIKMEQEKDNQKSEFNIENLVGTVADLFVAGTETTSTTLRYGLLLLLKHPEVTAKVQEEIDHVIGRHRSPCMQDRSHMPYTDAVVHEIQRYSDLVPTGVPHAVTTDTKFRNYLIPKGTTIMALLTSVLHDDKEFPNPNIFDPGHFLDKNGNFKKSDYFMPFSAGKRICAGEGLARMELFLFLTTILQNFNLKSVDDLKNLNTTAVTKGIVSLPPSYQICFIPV

[20] = Oral bioavailability in non-fasted ICR mouse at 5 mg/kg by LC-MS/MS analysis; type: ADME, organism-based; conditions: in vivo
CYP3A4 = CYP3A4 (Homo sapiens, UniProt P08684); assay: Inhibition of CYP3A4 in human liver microsomes using midazolam as substrate at 10 uM in presence of NADPH generating system incubated for 10 mins; type: ADME; conditions: probe midazolam
Sequence of CYP3A4 (P08684 whole entry): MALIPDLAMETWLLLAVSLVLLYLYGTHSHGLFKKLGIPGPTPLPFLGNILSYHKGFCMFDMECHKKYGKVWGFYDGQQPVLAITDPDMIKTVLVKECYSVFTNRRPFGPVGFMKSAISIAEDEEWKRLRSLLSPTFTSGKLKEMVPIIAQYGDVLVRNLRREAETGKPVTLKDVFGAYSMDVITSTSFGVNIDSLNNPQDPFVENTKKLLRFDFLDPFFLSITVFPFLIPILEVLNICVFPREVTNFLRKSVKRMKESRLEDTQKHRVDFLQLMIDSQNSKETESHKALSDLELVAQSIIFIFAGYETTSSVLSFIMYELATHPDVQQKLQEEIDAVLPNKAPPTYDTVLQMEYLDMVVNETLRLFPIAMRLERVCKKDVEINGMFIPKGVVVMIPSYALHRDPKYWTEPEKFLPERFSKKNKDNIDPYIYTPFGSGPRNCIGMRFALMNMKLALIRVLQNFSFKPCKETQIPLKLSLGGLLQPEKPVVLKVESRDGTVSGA

[21] = MRT in non-fasted ICR mouse at 0.5 mg/kg, iv by LC-MS/MS analysis; type: ADME, organism-based; conditions: in vivo
[22] = Volume of distribution at steady state in non-fasted ICR mouse at 0.5 mg/kg, iv by LC-MS/MS analysis; type: ADME, organism-based; conditions: in vivo, read-out: Vdss

Cmax [3]: 1180 ng/mL
AUC [6]: 10700 ng·h/mL
Drug uptake(free) [7]: 0.24 µM
efflux ratio at 1 h, 1 µM [9]: 9.6
inhibition at 10 min, 10 µM (CYP1A2): 5.8%
inhibition at 10 min, 10 µM (CYP2D6): 10.9%
clearance [10]: 5.23 mL/min/kg
MRT [11]: 7.14 h
EC50 [12]: 7.6 nM
Kp uu at 1 h [14]: 0.11
microsomal CLint at 1 µM [15]: 6 µL/min/mg
chromatographic logD [16]: 2.48
IC50 [17]: 51 nM
solubility kinetic [18]: 5.2 µg/mL (≈ 11.3 µM)
inhibition at 10 min, 10 µM (CYP2C9): 37.9%
inhibition at 10 min, 10 µM (CYP2C8): 22.4%
bioavailability [20]: 67%
inhibition at 10 min, 10 µM (CYP3A4): 15.5%
MRT [21]: 3.44 h
Vd [22]: 1.08 L/kg
Compound: CC(C)(O)c1ccc(N2Cc3c(ccnc3-c3ccc(F)cc3OCC(F)(F)F)C2=O)cc1
Activity [1]: Non-Toxic
Activity [2]: Non-Toxic
inhibition at 5 min, 10 µM (hERG [4]): 13.8%
MEC [5]: > 30 µM
inhibition at 30 µM (hERG [8]): 42%
Activity [13]: Toxic
inhibition at 30 µM (Cav1.2): 2.4%
inhibition at 30 µM (Nav1.5): 7.1%
IC50 [19]: 310 nM
